Measured values: PubChem BioAssay (NCI)
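Dose response: 5 concentrations. Exposure: 48 h. Format: 96-well plates. Endpoint: linear interpolation; highest concentration if not reached. Here, GI50 denotes the concentration required for 50% inhibition of growth. TGI is the concentration that stops growth completely.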

Experiments:
Assay in all cases: NCI tumour cell line growth inhibition, 48 h
[1] = test system: IGROV1 ovarian
[2] = test system: NCI/ADR-RES ovarian
[3] = test system: NCI-H226 lung
[4] = test system: 786-0 renal
[5] = test system: ACHN renal
[6] = test system: SK-OV-3 ovarian
[7] = test system: T-47D breast
[8] = test system: HL-60(TB) leukemia
[9] = test system: KM12 colon
[10] = test system: M14 melanoma
[11] = test system: MCF7 breast
[12] = test system: UACC-62 melanoma
[13] = test system: RXF 393 renal
[14] = test system: DU-145 prostate
[15] = test system: LOX IMVI melanoma
[16] = test system: SF-268 CNS
[17] = test system: BT-549 breast
[18] = test system: NCI-H23 lung
[19] = test system: PC-3 prostate
[20] = test system: MDA-MB-231 breast
[21] = test system: NCI-H522 lung
[22] = test system: SNB-19 CNS
[23] = test system: SK-MEL-5 melanoma
[24] = test system: NCI-H460 lung
[25] = test system: TK-10 renal
[26] = test system: SK-MEL-28 melanoma
[27] = test system: CAKI-1 renal
[28] = test system: EKVX NSCLC
[29] = test system: HCC-2998 colon
[30] = test system: SNB-75 CNS
[31] = test system: HS 578T breast
[32] = test system: MALME-3M melanoma
[33] = test system: A549 NSCLC
[34] = test system: HCT-15 colon
[35] = test system: COLO 205 colon
[36] = test system: SF-295 CNS
[37] = test system: OVCAR-3 ovarian
[38] = test system: MOLT-4 leukemia
[39] = test system: OVCAR-8 ovarian
[40] = test system: OVCAR-4 ovarian
[41] = test system: SR leukemia
[42] = test system: RPMI-8226 leukemia
[43] = test system: K-562 leukemia
[44] = test system: SK-MEL-2 melanoma
[45] = test system: OVCAR-5 ovarian
[46] = test system: CCRF-CEM leukemia
[47] = test system: MDA-MB-435
[48] = test system: HOP-62 NSCLC
[49] = test system: HT29 colon
[50] = test system: SN12C renal
[51] = test system: U251 CNS
[52] = test system: SF-539 CNS
[53] = test system: HCT-116 colon
[54] = test system: UO-31 renal
[55] = test system: SW-620 colon
[56] = test system: HOP-92 NSCLC
[57] = test system: A498 renal
[58] = test system: UACC-257 melanoma

N#Cc1c(Br)n(C2OC(CO)C(O)C2O)c2ncnc(N)c12 (stereo unspecified) gave a GI50 [1] of 0.333 µM, a TGI [1] of 1.76 µM and a GI50 [2] of 1.43 µM. For the same compound, the TGI [2] was 52.5 µM, the GI50 [3] was 9.16 µM and the TGI [3] was > 100 µM. For the same compound, the GI50 [4] was 6.45 µM, the TGI [4] was > 100 µM and the GI50 [5] was 1.21 µM. The TGI [5] was > 90.9 µM, the GI50 [6] was 4.29 µM and the TGI [6] was > 45.4 µM. For the same compound, the GI50 [7] was 0.498 µM, the TGI [7] was 21 µM and the GI50 [8] was 0.608 µM. The TGI [8] was 2.59 µM, the GI50 [9] was 1.71 µM and the TGI [9] was > 40.1 µM. It also gave a GI50 [10] of 2.18 µM, a TGI [10] of 17.8 µM and a GI50 [11] of 0.631 µM. For the same compound, the TGI [11] was 4.01 µM, the GI50 [12] was 2.64 µM and the TGI [12] was 6.09 µM. It also gave a GI50 [13] of 0.847 µM, a TGI [13] of 6.8 µM and a GI50 [14] of 0.844 µM. It also gave a TGI [14] of 23.9 µM, a GI50 [15] of 1.13 µM and a TGI [15] of 16.4 µM. For the same compound, the GI50 [16] was 1.5 µM, the TGI [16] was 18.9 µM and the GI50 [17] was 1.58 µM. For the same compound, the TGI [17] was 15 µM, the GI50 [18] was 3.63 µM and the TGI [18] was 41.1 µM. For the same compound, the GI50 [19] was 0.811 µM, the TGI [19] was 18.6 µM and the GI50 [20] was 3.82 µM. For the same compound, the TGI [20] was > 79.9 µM, the GI50 [21] was 4.62 µM and the TGI [21] was 14.8 µM. For the same compound, the GI50 [22] was 4.35 µM, the TGI [22] was > 75.9 µM and the GI50 [23] was 2.68 µM. The TGI [23] was 7 µM, the GI50 [24] was 0.574 µM and the TGI [24] was 4.56 µM. It also gave a GI50 [25] of 4.02 µM, a TGI [25] of 42 µM and a GI50 [26] of 2.14 µM. For the same compound, the TGI [26] was 12.7 µM, the GI50 [27] was 0.677 µM and the TGI [27] was 2.91 µM. The GI50 [28] was 4.62 µM, the TGI [28] was 74.7 µM and the GI50 [29] was 2.15 µM. For the same compound, the TGI [29] was 26.3 µM, the GI50 [30] was 3.98 µM and the TGI [30] was 30.7 µM. It also gave a GI50 [31] of 0.696 µM, a TGI [31] of 8.54 µM and a GI50 [32] of 2.53 µM. For the same compound, the TGI [32] was 20 µM, the GI50 [33] was 1.13 µM and the TGI [33] was > 27 µM. The GI50 [34] was 0.695 µM, the TGI [34] was 46.3 µM and the GI50 [35] was 0.675 µM. For the same compound, the TGI [35] was 3.07 µM, the GI50 [36] was 2.07 µM and the TGI [36] was 30.7 µM. The GI50 [37] was 1.6 µM, the TGI [37] was 34.1 µM and the GI50 [38] was 0.723 µM. The TGI [38] was 7.02 µM, the GI50 [39] was 1.59 µM and the TGI [39] was > 100 µM. The GI50 [40] was 2.11 µM, the TGI [40] was 71.8 µM and the GI50 [41] was 0.827 µM. It also gave a TGI [41] of 4.98 µM, a GI50 [42] of 1.26 µM and a TGI [42] of 6.69 µM. For the same compound, the GI50 [43] was 1.07 µM, the TGI [43] was > 47.4 µM and the GI50 [44] was 5.3 µM. The TGI [44] was 14.1 µM, the GI50 [45] was 4.17 µM and the TGI [45] was > 100 µM. For the same compound, the GI50 [46] was 0.241 µM, the TGI [46] was 3.87 µM and the GI50 [47] was 1.24 µM. For the same compound, the TGI [47] was > 46.2 µM, the GI50 [48] was 4.09 µM and the TGI [48] was > 100 µM. The GI50 [49] was 0.885 µM, the TGI [49] was > 36.2 µM and the GI50 [50] was 2.69 µM. The TGI [50] was > 100 µM, the GI50 [51] was 1.85 µM and the TGI [51] was > 100 µM. For the same compound, the GI50 [52] was 3.91 µM, the TGI [52] was 19.3 µM and the GI50 [53] was 0.685 µM. The TGI [53] was > 77.7 µM, the GI50 [54] was 2.25 µM and the TGI [54] was 59.5 µM. It also gave a GI50 [55] of 0.74 µM, a TGI [55] of 32.7 µM and a GI50 [56] of 0.738 µM. The TGI [56] was 4.02 µM, the GI50 [57] was 2.64 µM and the TGI [57] was 20.9 µM. It also gave a GI50 [58] of 4.72 µM and a TGI [58] of 38.5 µM.
